Source: ChEMBL document CHEMBL1909046, “DrugMatrix in vitro pharmacology data”

Legend:
[1] = biological target: T1, Androgen receptor (Rattus norvegicus, UniProt P15207)
T1 sequence (P15207 whole entry): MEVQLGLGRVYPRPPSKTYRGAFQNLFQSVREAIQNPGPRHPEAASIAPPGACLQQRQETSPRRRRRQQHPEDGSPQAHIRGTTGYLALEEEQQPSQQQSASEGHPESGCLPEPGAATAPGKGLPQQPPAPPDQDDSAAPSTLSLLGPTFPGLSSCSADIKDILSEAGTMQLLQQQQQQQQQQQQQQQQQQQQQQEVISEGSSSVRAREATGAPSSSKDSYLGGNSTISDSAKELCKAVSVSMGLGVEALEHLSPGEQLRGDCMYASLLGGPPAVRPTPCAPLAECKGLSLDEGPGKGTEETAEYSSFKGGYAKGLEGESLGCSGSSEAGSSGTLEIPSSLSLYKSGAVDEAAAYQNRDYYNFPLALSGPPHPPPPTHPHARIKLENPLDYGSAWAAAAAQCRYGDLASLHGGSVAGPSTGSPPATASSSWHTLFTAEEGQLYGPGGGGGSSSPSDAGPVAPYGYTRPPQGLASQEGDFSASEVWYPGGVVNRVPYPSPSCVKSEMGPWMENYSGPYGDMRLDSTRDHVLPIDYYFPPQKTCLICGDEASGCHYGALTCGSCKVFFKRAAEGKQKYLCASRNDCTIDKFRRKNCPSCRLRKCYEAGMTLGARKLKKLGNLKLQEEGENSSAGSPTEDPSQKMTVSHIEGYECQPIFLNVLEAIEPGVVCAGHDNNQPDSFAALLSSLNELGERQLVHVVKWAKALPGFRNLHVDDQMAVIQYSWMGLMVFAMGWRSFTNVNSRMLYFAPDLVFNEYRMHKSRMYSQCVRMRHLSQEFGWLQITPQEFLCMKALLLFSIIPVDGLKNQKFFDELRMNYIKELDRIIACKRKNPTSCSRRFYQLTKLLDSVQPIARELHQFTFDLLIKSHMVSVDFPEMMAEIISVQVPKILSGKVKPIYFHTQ

[2] = biological target: T2, Cytochrome P450 1A2 (Homo sapiens, UniProt P05177)
T2 sequence (P05177 whole entry): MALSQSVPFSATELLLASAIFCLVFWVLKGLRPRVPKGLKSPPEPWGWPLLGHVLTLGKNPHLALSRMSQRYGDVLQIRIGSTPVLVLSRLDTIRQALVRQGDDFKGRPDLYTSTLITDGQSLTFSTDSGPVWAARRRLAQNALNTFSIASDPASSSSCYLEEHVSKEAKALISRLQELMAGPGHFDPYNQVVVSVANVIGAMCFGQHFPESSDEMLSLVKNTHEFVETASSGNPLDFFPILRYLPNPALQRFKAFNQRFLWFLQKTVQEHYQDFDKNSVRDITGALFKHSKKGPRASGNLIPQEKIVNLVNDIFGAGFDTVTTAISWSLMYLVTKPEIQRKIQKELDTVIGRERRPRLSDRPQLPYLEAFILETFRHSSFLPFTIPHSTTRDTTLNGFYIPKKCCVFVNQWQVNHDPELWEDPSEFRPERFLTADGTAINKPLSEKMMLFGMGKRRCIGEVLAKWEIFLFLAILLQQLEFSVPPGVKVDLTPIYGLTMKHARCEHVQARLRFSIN

[3] = biological target: T3, Estrogen receptor (Homo sapiens, UniProt P03372); test: biochemical
T3 sequence (P03372 whole entry): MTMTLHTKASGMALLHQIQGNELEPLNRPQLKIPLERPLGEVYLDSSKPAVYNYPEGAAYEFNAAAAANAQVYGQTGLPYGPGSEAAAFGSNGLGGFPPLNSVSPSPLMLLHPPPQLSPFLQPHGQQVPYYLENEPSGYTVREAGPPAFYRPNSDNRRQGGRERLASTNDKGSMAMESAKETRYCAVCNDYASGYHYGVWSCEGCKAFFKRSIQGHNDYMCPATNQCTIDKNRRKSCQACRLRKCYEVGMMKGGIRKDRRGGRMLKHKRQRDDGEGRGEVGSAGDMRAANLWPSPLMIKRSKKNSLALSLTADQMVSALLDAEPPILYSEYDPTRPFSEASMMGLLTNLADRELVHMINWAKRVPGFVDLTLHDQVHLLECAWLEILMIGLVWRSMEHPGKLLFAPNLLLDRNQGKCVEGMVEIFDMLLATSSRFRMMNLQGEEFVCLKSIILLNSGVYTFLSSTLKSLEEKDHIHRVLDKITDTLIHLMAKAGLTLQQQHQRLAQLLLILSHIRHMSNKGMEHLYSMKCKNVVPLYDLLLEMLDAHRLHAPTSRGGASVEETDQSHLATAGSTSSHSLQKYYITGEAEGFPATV

[4] = biological target: Cytochrome P450 2C19 (Homo sapiens, UniProt P33261)
[5] = biological target: T4, Glucocorticoid receptor (Homo sapiens, UniProt P04150); test: biochemical
T4 sequence (P04150 whole entry): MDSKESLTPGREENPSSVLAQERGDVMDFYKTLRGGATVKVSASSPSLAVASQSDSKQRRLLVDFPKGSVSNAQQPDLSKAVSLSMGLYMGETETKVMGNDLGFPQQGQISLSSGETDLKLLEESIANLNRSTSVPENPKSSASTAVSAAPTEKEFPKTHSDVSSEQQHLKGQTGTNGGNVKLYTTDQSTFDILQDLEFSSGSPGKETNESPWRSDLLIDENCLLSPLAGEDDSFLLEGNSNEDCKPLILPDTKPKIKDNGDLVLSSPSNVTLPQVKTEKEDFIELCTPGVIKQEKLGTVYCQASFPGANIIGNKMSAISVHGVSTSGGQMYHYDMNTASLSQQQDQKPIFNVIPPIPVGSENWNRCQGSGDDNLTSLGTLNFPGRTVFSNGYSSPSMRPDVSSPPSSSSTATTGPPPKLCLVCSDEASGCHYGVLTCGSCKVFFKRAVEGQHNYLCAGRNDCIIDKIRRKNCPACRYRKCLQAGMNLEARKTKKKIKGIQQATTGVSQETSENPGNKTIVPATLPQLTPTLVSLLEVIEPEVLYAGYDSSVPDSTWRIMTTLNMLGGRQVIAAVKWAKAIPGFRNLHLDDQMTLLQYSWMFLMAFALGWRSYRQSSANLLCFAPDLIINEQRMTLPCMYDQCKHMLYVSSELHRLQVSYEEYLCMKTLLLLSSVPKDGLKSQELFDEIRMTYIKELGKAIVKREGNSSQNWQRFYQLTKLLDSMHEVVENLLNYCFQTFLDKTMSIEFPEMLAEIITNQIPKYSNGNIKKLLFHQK

[6] = biological target: Cytochrome P450 2D6 (Homo sapiens, UniProt P10635)
[7] = biological target: Voltage-gated inwardly rectifying potassium channel KCNH2 (Homo sapiens, UniProt Q12809)
Further: in other assays of this panel Not Active means under 50% inhibition at 10 µM.

Sequence of Voltage-gated inwardly rectifying potassium channel KCNH2 (Q12809 whole entry): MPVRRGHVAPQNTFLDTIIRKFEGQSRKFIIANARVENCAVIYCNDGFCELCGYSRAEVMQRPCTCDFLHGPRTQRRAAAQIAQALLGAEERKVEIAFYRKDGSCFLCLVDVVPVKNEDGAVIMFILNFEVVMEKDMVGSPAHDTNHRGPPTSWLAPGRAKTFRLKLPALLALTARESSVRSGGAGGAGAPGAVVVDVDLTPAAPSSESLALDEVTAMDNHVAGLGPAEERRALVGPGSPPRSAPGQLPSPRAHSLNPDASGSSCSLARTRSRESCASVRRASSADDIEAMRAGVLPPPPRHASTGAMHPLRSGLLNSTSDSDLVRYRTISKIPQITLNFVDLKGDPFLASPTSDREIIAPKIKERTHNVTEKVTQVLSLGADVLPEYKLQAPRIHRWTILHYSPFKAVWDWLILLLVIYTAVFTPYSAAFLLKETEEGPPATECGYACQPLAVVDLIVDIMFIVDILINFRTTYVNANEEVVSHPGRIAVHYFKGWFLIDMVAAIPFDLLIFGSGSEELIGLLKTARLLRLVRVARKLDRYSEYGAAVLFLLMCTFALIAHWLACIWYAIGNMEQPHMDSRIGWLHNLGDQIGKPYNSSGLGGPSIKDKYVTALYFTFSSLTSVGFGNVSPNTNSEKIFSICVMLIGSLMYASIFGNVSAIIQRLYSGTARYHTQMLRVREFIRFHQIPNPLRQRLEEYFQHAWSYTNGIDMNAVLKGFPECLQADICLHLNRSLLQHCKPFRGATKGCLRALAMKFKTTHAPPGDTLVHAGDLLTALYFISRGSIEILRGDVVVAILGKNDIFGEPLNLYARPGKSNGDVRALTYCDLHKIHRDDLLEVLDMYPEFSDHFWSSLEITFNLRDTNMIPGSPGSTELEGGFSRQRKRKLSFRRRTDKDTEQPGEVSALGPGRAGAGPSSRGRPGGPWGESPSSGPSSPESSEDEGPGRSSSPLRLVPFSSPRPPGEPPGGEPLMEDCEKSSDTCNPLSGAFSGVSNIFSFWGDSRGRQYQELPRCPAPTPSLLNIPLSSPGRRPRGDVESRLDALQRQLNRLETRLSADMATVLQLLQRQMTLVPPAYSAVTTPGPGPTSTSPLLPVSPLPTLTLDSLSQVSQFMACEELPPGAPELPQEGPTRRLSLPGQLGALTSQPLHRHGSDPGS
Sequence of Cytochrome P450 2D6 (P10635 whole entry): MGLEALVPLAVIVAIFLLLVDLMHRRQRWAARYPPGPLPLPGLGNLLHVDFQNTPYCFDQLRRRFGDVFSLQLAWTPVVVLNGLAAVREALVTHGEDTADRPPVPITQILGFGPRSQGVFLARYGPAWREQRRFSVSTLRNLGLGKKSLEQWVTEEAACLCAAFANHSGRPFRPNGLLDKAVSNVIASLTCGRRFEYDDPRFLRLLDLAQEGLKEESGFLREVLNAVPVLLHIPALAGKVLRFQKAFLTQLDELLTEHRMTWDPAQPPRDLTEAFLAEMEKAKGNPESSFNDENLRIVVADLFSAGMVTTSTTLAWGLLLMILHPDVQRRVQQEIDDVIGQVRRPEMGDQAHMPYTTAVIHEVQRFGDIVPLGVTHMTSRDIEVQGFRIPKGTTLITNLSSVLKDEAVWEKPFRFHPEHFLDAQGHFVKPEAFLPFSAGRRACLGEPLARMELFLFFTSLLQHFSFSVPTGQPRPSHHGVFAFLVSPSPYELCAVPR
Sequence of Cytochrome P450 2C19 (P33261 whole entry): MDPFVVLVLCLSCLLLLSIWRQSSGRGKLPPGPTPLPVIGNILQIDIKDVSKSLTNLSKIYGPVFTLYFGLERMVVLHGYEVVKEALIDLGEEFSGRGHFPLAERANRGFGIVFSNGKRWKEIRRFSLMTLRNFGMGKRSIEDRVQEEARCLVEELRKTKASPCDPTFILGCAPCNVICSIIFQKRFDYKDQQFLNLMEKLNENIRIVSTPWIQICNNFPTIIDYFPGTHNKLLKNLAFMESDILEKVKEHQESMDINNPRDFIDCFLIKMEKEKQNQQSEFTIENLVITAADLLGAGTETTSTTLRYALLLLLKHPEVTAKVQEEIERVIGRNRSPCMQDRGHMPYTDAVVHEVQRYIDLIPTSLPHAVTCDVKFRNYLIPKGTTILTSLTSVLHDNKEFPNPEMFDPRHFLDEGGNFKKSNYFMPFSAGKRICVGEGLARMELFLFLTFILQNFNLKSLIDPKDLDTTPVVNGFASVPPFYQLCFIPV

## COc1ccc2cc(CC(=O)O)ccc2c1
[1]
  IC50: Not Active

## CC(C)NC[C@H](O)COc1cccc2[nH]ccc12
[1]
  IC50: Not Active

## c1ccc2c(c1)cc1ccc3cccc4ccc2c1c34
[2]
  IC50: 40 nM

## C=C1C(=O)O[C@@H]2C3O[C@]3(C)CC/C=C(\C)CC[C@@H]12 (some centres undefined)
[1]
  IC50: Not Active

## CCCCCCCCCc1ccc(O)cc1 [4-NONYLPHENOL]
[3]
  IC50: 377 nM
  Ki: 108 nM

## COc1ccc2c(c1)c(CC(=O)OCC(=O)O)c(C)n2C(=O)c1ccc(Cl)cc1 [ACEMETACIN]
[1]
  IC50: Not Active

## Cc1[nH]cnc1CN1CCc2c(c3ccccc3n2C)C1=O [ALOSETRON]
[2]
  IC50: 605 nM

## O=c1cc(-c2ccccc2)oc2c1ccc1ccccc12 [ALPHA-NAPHTHOFLAVONE]
[1]
  IC50: Not Active

## NCC[C@H](O)C(=O)N[C@@H]1C[C@H](N)[C@@H](O[C@H]2O[C@H](CN)[C@@H](O)[C@H](O)[C@H]2O)[C@H](O)[C@H]1O[C@H]1O[C@H](CO)[C@@H](O)[C@H](N)[C@H]1O [AMIKACIN]
[1]
  IC50: Not Active

## CC1(C)S[C@@H]2[C@H](NC(=O)[C@H](N)c3ccc(O)cc3)C(=O)N2[C@H]1C(=O)O [AMOXICILLIN]
[1]
  IC50: Not Active

## N#C[C@H](O[C@@H]1O[C@H](CO[C@@H]2O[C@H](CO)[C@@H](O)[C@H](O)[C@H]2O)[C@@H](O)[C@H](O)[C@H]1O)c1ccccc1 [AMYGDALIN]
[1]
  IC50: Not Active

## C=C1[C@@H]2CCC3[C@@](CC[C@@H]4[C@H](C(=O)O)C[C@@H](O[C@@H]5O[C@H](CO)[C@@H](OS(=O)(=O)[O-])[C@H](OS(=O)(=O)[O-])[C@H]5OC(=O)CC(C)C)C[C@@]34C)(C2)[C@@H]1O.[K+].[K+] (some centres undefined) [ATRACTYLOSIDE]
[1]
  IC50: Not Active

## OCc1ccccc1 [BENZYL ALCOHOL]
[1]
  IC50: Not Active

## Brc1ccccc1 [BROMOBENZENE]
[1]
  IC50: Not Active

## CC[C@@]1(O)C(=O)OCc2c1cc1n(c2=O)Cc2cc3ccccc3nc2-1 [CAMPTOTHECIN]
[1]
  IC50: Not Active

## COCc1c(C(C)C)nc(C(C)C)c(/C=C/[C@@H](O)C[C@@H](O)CC(=O)O)c1-c1ccc(F)cc1 [CERIVASTATIN]
[1]
  IC50: Not Active

## CC(=O)O[C@]1(C(C)=O)CC[C@H]2[C@@H]3C=C(Cl)C4=CC(=O)CC[C@]4(C)[C@H]3CC[C@@]21C [CHLORMADINONE ACETATE]
[4]
  IC50: 3000 nM

## CC(=O)OCC(=O)[C@@]1(OC(C)=O)[C@@H](C)C[C@H]2[C@@H]3C[C@H](F)C4=CC(=O)C=C[C@]4(C)[C@@]3(F)[C@@H](O)C[C@@]21C [DIFLORASONE DIACETATE]
[5]
  IC50: 6.4 nM
  Ki: 2.91 nM

## CCc1ccc(C(=O)C(C)CN2CCCCC2)cc1 (centres undefined) [EPERISONE]
[6]
  IC50: 4900 nM

## CCc1cccc2c3c([nH]c12)C(CC)(CC(=O)O)OCC3 (centres undefined) [ETODOLAC]
[1]
  IC50: Not Active

## Cc1c(-c2ccccc2)oc2c(C(=O)OCCN3CCCCC3)cccc2c1=O [FLAVOXATE]
[7]
  IC50: 24100 nM
  Ki: 19800 nM

## O=C1OC2(c3ccc(O)cc3Oc3cc(O)ccc32)c2ccccc21 [FLUORESCEIN]
[4]
  IC50: 907 nM

## CC(=O)[C@@]1(O)CC[C@H]2[C@@H]3C[C@H](C)C4=CC(=O)C=C[C@]4(C)[C@@]3(F)[C@@H](O)C[C@@]21C [FLUOROMETHOLONE]
[5]
  IC50: 3.47 nM
  Ki: 1.58 nM

## CNCCC=C1c2ccccc2CCc2ccccc21 [NORTRIPTYLINE]
[6]
  IC50: 1000 nM
[4]
  IC50: 3000 nM

## CN(C)[C@@H]1C(O)=C(C(N)=O)C(=O)[C@@]2(O)C(O)=C3C(=O)c4c(O)cccc4[C@@](C)(O)[C@H]3[C@H](O)[C@@H]12 [OXYTETRACYCLINE]
[1]
  IC50: Not Active

## Fc1ccc([C@@H]2CCNC[C@H]2COc2ccc3c(c2)OCO3)cc1 [PAROXETINE]
[1]
  IC50: Not Active

## CNC(=O)Oc1ccc2c(c1)[C@]1(C)CCN(C)[C@@H]1N2C [PHYSOSTIGMINE]
[6]
  IC50: 200 nM

## C=C(C)[C@@H]1[C@H]2OC(=O)[C@@H]1[C@]1(O)C[C@H]3O[C@]34C(=O)O[C@H]2[C@]14C [PICROTOXININ]
[1]
  IC50: Not Active

## COc1ccc(CN(CCN(C)C)c2ccccn2)cc1 [PYRILAMINE]
[7]
  IC50: 12600 nM
  Ki: 10300 nM
[6]
  IC50: 300 nM

## CARBOPLATIN
[1]
  IC50: Not Active
  Ki: Not Active

## CISPLATIN
[1]
  IC50: Not Active
  Ki: Not Active

## GOLD SODIUM THIOMALATE
[1]
  IC50: Not Active
  Ki: Not Active

## OXALIPLATIN
[1]
  IC50: Not Active
  Ki: Not Active
